One test relates to L. monocytogenes 149. Kind of test: MIC for further growth of biofilm cells, preformed biofilm (A625nm). It counts as cell-based, Listeria monocytogenes. Conditions: ≥80% inhibition, 18 h preformed biofilm, 20 h with substance. As to the method: (§1) Ten concentrations of NAC, RLs, and UA were tested to determine the minimum inhibitory concentration for planktonic growth, and subsequently, the six highest concentrations were applied on preformed biofilms to evaluate the biofilm eradication ability of the compounds. MIC was defined as the lowest substance concentration able to inhibit at least 80% of microbial growth (MICPC80 for planktonic cells, MICBC80 for further growth of biofilm cells), inhibit 80% of metabolic activity (MICBM80 for biofilm metabolic activity, MICMPB80 for metabolic activity of preformed biofilm), prevent biofilm formation by at least 80% (MICBF80 for biofilm formation), or reduce a preformed biofilm by at least 80% (MICBR80 for biofilm reduction). The results of MICs are summarized in Table 1 (planktonic cells) and Table 2 (biofilm-associated cells).
(§2) The determination of MICs was performed according to Chlumsky et al.. Briefly, 96-well flat-bottomed microtiter plates were inoculated with 75 µL (for biofilm formation) or 100 µL (for preformed biofilm) of bacterial suspension (A625nm 0.08 to 0.1) in technical triplicates and were then carefully mixed with the dilution series of the test substances (24 h cultivation at 25 °C for S. Infantis, 37 °C for other strains) or were directly cultivated to preform biofilms (18 h). For a positive control of bacterial growth, the inoculum was mixed with a pure sterile medium. […] To evaluate planktonic cells growth (MICPC80) and further growth of biofilm cells (MICBC80), the optical density of the content of the microtiter plates was measured spectrophotometrically at 625 nm before and after 24 h (for biofilm formation) of cultivation or before and after additional 20 h incubation with the tested compound (for preformed biofilm). […] To evaluate the inhibition of biofilm formation (MICBF80) and reduction in preformed biofilms (MICBR80), biomass was quantified using crystal violet staining, and its metabolic activity (MICBM80 and MICMPB80) was estimated by using the MTT (thiazyl tetrazolium bromide, Sigma-Aldrich, USA) reduction assay, both measured spectrophotometrically at 595 nm.
(§3) All inhibitions were calculated using the formula of Chlumsky et al. below (Equation (1)):(1) A625(595)nm inhibition (%)=A625(595)nm (control) – A625(595)nm(natural substance)/A625(595)nm (control)× 100 where A625(595)nm (control) is the absorbance of bacterial suspension/biofilm itself, and A625(595)nm(natural substance) is the absorbance of the bacterial suspension/biofilm with the added natural substance (NAC, RLs, and UA).
(§4) When the minimum inhibitory concentration could not be determined, the MIC was established as >the highest tested concentration for NAC, RLs, and UA.

A further test relates to L. monocytogenes 164. Described as above. In kind it is cell-based, Listeria monocytogenes. Conditions: ≥80% inhibition, 18 h preformed biofilm, 20 h with substance. The procedure: as §1, §2, §3, §4
For test [1], the system named is E. coli 693/17. Described as above. Conditions: for MICBC80: ≥80% inhibition, 18 h preformed biofilm, 20 h with substance. In kind it is cell-based, Escherichia coli. As to the method:
as §1
(§5) The determination of MICs was performed according to Chlumsky et al.. Briefly, 96-well flat-bottomed microtiter plates were inoculated with 75 µL (for biofilm formation) or 100 µL (for preformed biofilm) of bacterial suspension (A625nm 0.08 to 0.1) in technical triplicates and were then carefully mixed with the dilution series of the test substances (24 h cultivation at 25 °C for S. Infantis, 37 °C for other strains) or were directly cultivated to preform biofilms (18 h). For a positive control of bacterial growth, the inoculum was mixed with a pure sterile medium. Furthermore, the sterile medium was included in the plate as a marker of potential microbial contamination. To evaluate planktonic cells growth (MICPC80) and further growth of biofilm cells (MICBC80), the optical density of the content of the microtiter plates was measured spectrophotometrically at 625 nm before and after 24 h (for biofilm formation) of cultivation or before and after additional 20 h incubation with the tested compound (for preformed biofilm). The difference of A625nm was considered as a measure of the ability of cells to grow in the presence of the tested substances. To evaluate the inhibition of biofilm formation (MICBF80) and reduction in preformed biofilms (MICBR80), biomass was quantified using crystal violet staining, and its metabolic activity (MICBM80 and MICMPB80) was estimated by using the MTT (thiazyl tetrazolium bromide, Sigma-Aldrich, USA) reduction assay, both measured spectrophotometrically at 595 nm.
as §3, §4

Test [2] relates to E. coli 683/17. The test is described as above. It counts as cell-based, Escherichia coli. Conditions: for MICBC80: ≥80% inhibition, 18 h preformed biofilm, 20 h with substance. The procedure:
as §1, §5, §3, §4

The subject of the next test is S. Infantis S59. Put plainly: MIC for metabolic activity of preformed biofilm (MTT reduction assay). To be noted: for MICMPB80: ≥80% inhibition, 20 h with substance. In kind it is cell-based, Salmonella enterica Infantis. The procedure: as §1, §5, §3, §4
(Formazan colour is commonly taken as a measure of viable cells.)

The next test deals with S. Infantis S13. The description is as above. In kind it is cell-based, Salmonella enterica Infantis. Conditions: for MICMPB80: ≥80% inhibition, 20 h with substance. As to the method: as §1, §5, §3, §4
The test system of another test is S. aureus 816. Put plainly: MIC for planktonic cell growth (A625nm). To be noted: ≥80% inhibition, 24 h. It counts as cell-based, Staphylococcus aureus. The procedure: as §1, §2, §3, §4
Another test has as its system S. aureus 1241. Kind of test: MIC for planktonic cell growth (A625nm). It counts as cell-based, Staphylococcus aureus. Conditions: ≥80% inhibition, 24 h. As to the method:
as §1, §2, §3, §4

Test [3] concerns E. coli 693/17. Kind of test: MIC for reduction of preformed biofilm (crystal violet staining). Conditions: for MICBR80: ≥80% reduction of preformed biofilm (18 h), 20 h with substance. In kind it is cell-based, Escherichia coli. The procedure:
as §1, §5, §3, §4

Test [4] has as its system E. coli 683/17. The test is described as above. It counts as cell-based, Escherichia coli. Conditions: for maximal achieved inhibition (MICBR80 not reached), biofilm reduction: preformed biofilm, within tested concentrations; for MICBR80: ≥80% reduction of preformed biofilm (18 h), 20 h with substance. The procedure: as §1, §5, §3, §4

`CC(=O)c1c(O)c(C)c(O)c2c1OC1=CC(=O)C(C(C)=O)C(=O)C12C` (single isomer, unassigned; (+)) [UA, (+)-usnic acid]: the MICBC80 is 1.96 µg/mL in the test on L. monocytogenes 149, 1.96 µg/mL against L. monocytogenes 164, above 31.3 µg/mL in the test with E. coli 693/17 [1] and above 31.3 µg/mL with E. coli 683/17 [2]. Moreover, the “maximal achieved inhibition (MICBC80 not reached)” value in the test on E. coli 693/17 [1] (within tested concentrations) stood at 61%; with E. coli 683/17 [2] (within tested concentrations), 44%. Moreover, the “maximal achieved inhibition (MICMPB80 not reached)” value in the test on S. Infantis S59 (within tested concentrations) is 26%; in the test with S. Infantis S13 (within tested concentrations), 17%. The MICMPB80 against S. Infantis S59 and in the test with S. Infantis S13 was above 31.3 µg/mL in each case. For the same compound, the MICPC80 in the test on S. aureus 816 and against S. aureus 1241 was 0.24 µg/mL throughout. For the same compound, the “maximal achieved inhibition (MICBR80 not reached), biofilm reduction” value was determined as 0% in the test on E. coli 693/17 [3] (preformed biofilm, within tested concentrations) and 0% in the test on E. coli 683/17 [4]. Also, the MICBR80 in the test with E. coli 693/17 [3] and against E. coli 683/17 [4] was above 31.3 µg/mL in each case.

Turning to `CC(=O)N[C@@H](CS)C(=O)O` [NAC, N-Acetyl-L-cysteine], the MICBC80 was 3130 µg/mL against L. monocytogenes 149, 3130 µg/mL against L. monocytogenes 164, 3130 µg/mL against E. coli 693/17 [1] and 6250 µg/mL with E. coli 683/17 [2]. Further, the MICMPB80 against S. Infantis S59 and against S. Infantis S13 was 12,500 µg/mL throughout. The MICPC80 with S. aureus 816 and against S. aureus 1241 was 3130 µg/mL in each case. For the same compound, the MICBR80 with E. coli 693/17 [3] is listed as 100,000 µg/mL; in the test with E. coli 683/17 [4], > 100,000 µg/mL. For the same compound, in the test with E. coli 683/17 [4], the “maximal achieved inhibition (MICBR80 not reached), biofilm reduction” value stood at 68%.

Source of the values: article PMC8583417, “Evaluation of the Antimicrobial Efficacy of N-Acetyl-L-Cysteine, Rhamnolipids, and Usnic Acid—Novel Approaches to Fight Food-Borne Pathogens” (International Journal of Molecular Sciences, 2021).
